Laboratory results from US7951562B2, “Method for glycosylating hydroxylysine residues in polypeptides or peptides” (Oulun Yliopisto, priority 2000, dated 2011).

Experiments:
Assay type in all cases: biochemical
[1] = biological target: T1, GT activity of the protein produced in E. coli cells with human LH3 cDNA (Homo sapiens, UniProt O60568); test: Effect of imidazole on GT activity of protein produced in E. coli with human LH3 cDNA
T1 construct: made in house; host or cells: E. coli XL1-Blue (pQE30)
T1 sequence (O60568 25-738): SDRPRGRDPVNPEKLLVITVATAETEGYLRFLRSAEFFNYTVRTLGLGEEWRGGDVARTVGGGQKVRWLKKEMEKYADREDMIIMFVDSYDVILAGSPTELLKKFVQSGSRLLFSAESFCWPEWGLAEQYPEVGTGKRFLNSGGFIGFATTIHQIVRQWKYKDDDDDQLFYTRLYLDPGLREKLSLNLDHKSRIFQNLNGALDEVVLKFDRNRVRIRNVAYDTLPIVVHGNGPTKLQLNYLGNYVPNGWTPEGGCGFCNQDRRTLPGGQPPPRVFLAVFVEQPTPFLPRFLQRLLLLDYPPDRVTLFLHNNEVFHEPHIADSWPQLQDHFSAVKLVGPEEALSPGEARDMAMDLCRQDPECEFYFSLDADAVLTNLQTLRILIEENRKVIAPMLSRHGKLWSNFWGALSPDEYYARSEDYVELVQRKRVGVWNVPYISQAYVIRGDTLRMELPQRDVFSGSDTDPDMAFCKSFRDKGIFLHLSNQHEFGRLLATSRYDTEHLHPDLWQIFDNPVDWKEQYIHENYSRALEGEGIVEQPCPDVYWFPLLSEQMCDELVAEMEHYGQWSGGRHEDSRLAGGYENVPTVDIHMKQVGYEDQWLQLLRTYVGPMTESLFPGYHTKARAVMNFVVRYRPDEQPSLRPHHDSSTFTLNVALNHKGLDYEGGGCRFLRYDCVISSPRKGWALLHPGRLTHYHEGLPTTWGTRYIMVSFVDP
Procedure: (§1) PFastBacI constructs for human LH1, LH2a, LH2b and LH3 were cleaved with BamHI and Hind III restriction enzymes and coding regions were subcloned into same site in E. coli expression vector pQE30 containing (His)6 tag at the amino terminus. Insert for C. elegans LH (corresponding to amino acids 14-730 in cDNA) was generated by PCR and ligated into SacI-PstI site of pOE30 vector. Constructs were transformed into E. coli XL1-Blue strain. Cultures were grown to OD600 of 0.6 at 37° C. Protein expression was induced by adding 1 mM IPTG and incubation was proceed at 30° C. for 5 hours. Cells were harvested and stored at −20° C. For activity measurements cell pellet was suspended to lysis buffer (0.4 M NaCl, 0.5% Nonident and 20 mM Tris-HCl pH 7.8, at 20° C.) and incubated in the presence of lysozyme (50 μg/ml), DNAase (10 μg/ml) and RNAase (10 μg g/ml) at room temperature for 30 minutes. Lysis was completed by sonication. Cell debris was pelleted and supernatant was used in the measurements.
(§2) GT and GGT activities were measured by a method based on the transfer of radioactively (tritium)-labeled sugar from UDP-sugar to hydroxylysyl or galactosylhydroxylysyl residues in a calf skin gelatin substrate, respectively (Myllylä et al. 1975). The specific detection of the reaction products was performed after alkaline hydrolysis.

[2] = biological target: T2, GGT activity of His-tagged LH3 (Homo sapiens, UniProt O60568); test: Effect of imidazole on GGT activity of His-tagged LH3 from Sf9 cells
T2 construct: human LH1 signal peptide (N, cleaved yes); made in house; host or cells: Sf9 insect cells, baculovirus (pFastBacI, BAC-TO-BAC)
T2 sequence (O60568 25-738): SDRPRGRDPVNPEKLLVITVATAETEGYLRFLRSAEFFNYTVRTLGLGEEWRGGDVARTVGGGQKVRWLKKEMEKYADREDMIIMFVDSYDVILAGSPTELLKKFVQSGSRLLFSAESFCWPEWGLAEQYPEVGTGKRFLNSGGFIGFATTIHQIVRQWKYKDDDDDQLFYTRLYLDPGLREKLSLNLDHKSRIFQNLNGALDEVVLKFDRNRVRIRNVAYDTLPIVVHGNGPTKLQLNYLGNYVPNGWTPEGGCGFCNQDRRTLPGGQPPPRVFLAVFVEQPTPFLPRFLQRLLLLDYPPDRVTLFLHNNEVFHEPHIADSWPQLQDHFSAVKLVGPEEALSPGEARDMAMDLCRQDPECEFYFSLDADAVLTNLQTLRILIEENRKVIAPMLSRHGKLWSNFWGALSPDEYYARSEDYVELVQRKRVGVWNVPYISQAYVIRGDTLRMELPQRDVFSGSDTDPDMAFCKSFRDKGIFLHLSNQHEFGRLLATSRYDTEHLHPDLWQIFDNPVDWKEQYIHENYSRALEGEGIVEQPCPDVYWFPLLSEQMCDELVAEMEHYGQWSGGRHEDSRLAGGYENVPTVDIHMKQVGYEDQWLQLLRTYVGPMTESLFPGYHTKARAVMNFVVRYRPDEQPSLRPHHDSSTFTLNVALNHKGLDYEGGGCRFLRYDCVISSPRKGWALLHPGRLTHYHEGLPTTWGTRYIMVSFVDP
Procedure: (§3) LH activity was assayed by a method based on the hydroxylation-coupled decarboxylation of 2-oxo(1-^14C)glutarate (Kivirikko and Myllylä 1982), synthetic peptide […] was used as a substrate. GGT activity was assayed as described elsewhere (Myllylä et al. 1975). The method is based on the transfer of radioactively (tritium) labelled glucose from UDP-glucose to galactosylhydroxylysyl residues in calf skin gelatin substrate and on the specific assay of the product of the enzyme reaction after alkaline hydrolysis.
(§4) LH3 was expressed in Sf9 cells as a protein with His-tag at the amino-terminus. This enabled us to use nickel column in the purification of the protein from the cell extract of insect cells, because nickel-charged agaroses are developed for the purification of recombinant proteins containing a polyhistidine (6×His) as a tag. […] No lysyl hydroxylase activity could be detected in the eluate, however. We have determined that imidazole is a potent inhibitor of lysyl hydroxylase activity. […] Imidazole in the concentration of 100 mM and 10 mM inactivated lysyl hydroxylase activity by 55% and 20%, respectively.

[3] = biological target: T3, lysyl hydroxylase activity of His-tagged LH3 (Homo sapiens, UniProt O60568); test: Inactivation of lysyl hydroxylase activity by imidazole
T3 construct: human LH1 signal peptide (N, cleaved yes); made in house; host or cells: Sf9 insect cells, baculovirus
T3 sequence (O60568 25-738): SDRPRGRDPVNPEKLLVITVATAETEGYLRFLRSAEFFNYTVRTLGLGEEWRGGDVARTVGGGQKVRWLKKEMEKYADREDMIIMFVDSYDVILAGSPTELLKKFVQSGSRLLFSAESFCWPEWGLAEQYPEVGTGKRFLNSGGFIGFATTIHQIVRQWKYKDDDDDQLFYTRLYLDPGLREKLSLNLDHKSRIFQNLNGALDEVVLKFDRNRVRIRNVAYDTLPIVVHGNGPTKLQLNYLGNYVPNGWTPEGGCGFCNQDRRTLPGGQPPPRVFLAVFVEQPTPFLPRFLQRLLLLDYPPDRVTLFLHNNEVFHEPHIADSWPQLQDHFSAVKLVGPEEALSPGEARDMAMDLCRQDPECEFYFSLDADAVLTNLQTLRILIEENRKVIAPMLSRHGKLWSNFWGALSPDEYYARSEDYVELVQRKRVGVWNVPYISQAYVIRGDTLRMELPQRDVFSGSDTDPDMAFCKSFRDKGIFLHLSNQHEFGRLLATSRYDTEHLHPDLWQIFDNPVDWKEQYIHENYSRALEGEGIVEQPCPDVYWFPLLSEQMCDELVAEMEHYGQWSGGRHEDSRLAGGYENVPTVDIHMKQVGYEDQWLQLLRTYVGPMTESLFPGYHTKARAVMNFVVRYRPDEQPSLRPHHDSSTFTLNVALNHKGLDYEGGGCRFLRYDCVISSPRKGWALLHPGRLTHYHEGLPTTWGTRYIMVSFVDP
Procedure: as §3, §4

[4] = biological target: T4, GGT activity of the protein produced in E. coli cells with human LH3 cDNA (Homo sapiens, UniProt O60568); test: Effect of imidazole on GGT activity of protein produced in E. coli with human LH3 cDNA
T4 construct: made in house; host or cells: E. coli XL1-Blue (pQE30)
T4 sequence (O60568 25-738): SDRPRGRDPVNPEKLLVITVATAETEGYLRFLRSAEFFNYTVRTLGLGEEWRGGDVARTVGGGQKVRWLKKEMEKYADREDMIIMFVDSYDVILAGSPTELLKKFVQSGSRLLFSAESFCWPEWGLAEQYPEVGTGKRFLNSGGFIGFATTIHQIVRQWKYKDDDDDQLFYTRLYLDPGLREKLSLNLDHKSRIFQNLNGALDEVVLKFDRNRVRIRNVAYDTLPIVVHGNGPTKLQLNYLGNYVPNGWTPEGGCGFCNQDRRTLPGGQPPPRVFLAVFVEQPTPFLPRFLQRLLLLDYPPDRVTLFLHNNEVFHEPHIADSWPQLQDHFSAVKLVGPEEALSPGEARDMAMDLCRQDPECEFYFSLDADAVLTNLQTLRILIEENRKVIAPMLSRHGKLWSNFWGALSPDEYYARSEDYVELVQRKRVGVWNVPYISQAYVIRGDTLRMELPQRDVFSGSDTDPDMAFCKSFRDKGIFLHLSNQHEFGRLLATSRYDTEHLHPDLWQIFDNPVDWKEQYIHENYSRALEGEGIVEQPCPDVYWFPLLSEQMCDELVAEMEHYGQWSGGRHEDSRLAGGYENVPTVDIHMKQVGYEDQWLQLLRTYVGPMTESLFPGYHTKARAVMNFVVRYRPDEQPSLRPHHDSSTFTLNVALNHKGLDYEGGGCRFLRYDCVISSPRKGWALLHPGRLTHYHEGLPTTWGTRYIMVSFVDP
Procedure: as §1, §2

- GT activity ([1]; 10 mM imidazole (no inhibitor: 760.000)): 795.000 dpm/mg
- GT activity ([1]; 100 mM imidazole (no inhibitor: 760.000)): 605.000 dpm/mg
- inhibition at 300000 µM ([1]; 300 mM imidazole): 60%
- GT activity ([1]; 300 mM imidazole (no inhibitor: 760.000)): 310.000 dpm/mg
- effect on GGT activity ([2]; 10 mM to 100 mM imidazole): no effect
- inhibition at 300000 µM ([2]; 300 mM imidazole): 25%
- inactivation of lysyl hydroxylase activity ([3]; 10 mM imidazole): 20%
- inactivation of lysyl hydroxylase activity ([3]; 100 mM imidazole): 55%
- inactivation of lysyl hydroxylase activity ([3]; 300 mM imidazole, 2 h on ice): almost complete inactivation
- GGT activity ([4]; 10 mM imidazole (no inhibitor: 667.000)): 583.000 dpm/mg
- GGT activity ([4]; 100 mM imidazole (no inhibitor: 667.000)): 599.000 dpm/mg
- inhibition at 300000 µM ([4]; 300 mM imidazole): ~30%
- GGT activity ([4]; 300 mM imidazole (no inhibitor: 667.000)): 459.000 dpm/mg
Compound: c1c[nH]cn1 [imidazole]
